Assay results published in patent publication US5177204A, “Derivatives of 4-(2,4-difluorbiphenylyl)-2-methyl-4-oxobutanoic acid” (Vyzkumng, USTAV pro farmacii a biochemii, Statni podnik, priority 1990, dated 1993).
Structures can show the parent of a compound that is named as a salt.

Tests used:
[1] = Freund adjuvant test, inhibition of adjuvant oedema (FA), anti-inflammatory effect; type: in vivo; conditions: for FA inhibition %: Table I, oral suspension in 0.5% methylcellulose, dose equimolar to flobufen 20 mg/kg; for FA suppression %: Table II, oral
Protocol: (§1) ^b Antiinflammatory and analgesic activity was evaluated in compariso
(§2) with flobufen in equimolar doses, while flobufen was administered in a
(§3) dose of 20 mg/kg in the evaluation of antiinflammatory activity and in a
(§4) dose of 100 mg/kg in the evaluation of analgesic activity; the substances
(§5) were administered orally as a suspension in a 0.5% solution of
(§6) methylcellulose and the oedema was measured 1 hour upon application;
^d Antiinflammatory effect in the Freundadjuvant test was assessed
according to Horakova Z., Grimova J.: Cs. Fysiol. 17, 137 (1968);
(§7) ^b for oral and intramuscular application an aqueous solution of
(§8) substance 17640 was used in said dose;
(§9) ^c the standard, i.e. 4(2,4-difluorobiphenylyl)-2-methyl-4-oxobutanic
(§10) acid was administered as a suspension in a 0.5% methylcellulose solution.

[2] = Acute toxicity, mortality after a single dose (oral or intravenous); type: in vivo; conditions: mouse, male mice; for mortality at 168 h: in vivo, po, 500 mg/kg, Table I, single oral dose of 500 mg/kg, day 7 after application
Protocol: (§11) ^a Acute oral toxicity of each substance was evaluated after a single
(§12) dose of 500 mg/kg in male mice. The mortality in % is for day 7 after
(§13) ^a Acute toxicity was evaluated after a single dose of substance 1764
(§14) in male mice, namely orally as an aqueous solution, and intravenously in
(§15) physiological saline solution. Mortality was followed up in groups of 10
(§16) animals for 7 days upon oral application and for 3 days upon intravenous

[3] = Analgesic activity, intraperitoneal irritation with 0.7% acid; type: in vivo, male mice; conditions: for Pain inhibition %: Table I, oral suspension in 0.5% methylcellulose, dose equimolar to flobufen 100 mg/kg, male mice; for Pain suppression %: Table II
Protocol: as §1, §2, §3, §4, §5
^e Analgesic activity was evaluated in the test of intraperitoneal
irritation with 0.7% acid in male mice according to Witkin L. et al.: J.
as §7, §8, §9, §10

[4] = Suppression of carragenine oedema (CE), anti-inflammatory effect; type: in vivo; conditions: for CE inhibition %: Table I, oral suspension in 0.5% methylcellulose, dose equimolar to flobufen 20 mg/kg, 1 hour upon application; for CE suppression %: Table II
Protocol: as §1, §2, §3, §4, §5, §6
^c Suppression of the carraganine oedema was assessed according to
Winter J.: Proc. Soc. exptl. Biol. Med., 111, 544 (1962);
as §7, §8, §9, §10

male mice = experiment: Acute toxicity, mortality after a single dose (oral or intravenous); type: in vivo; conditions: 500 mg/kg, 10080 min; for % mortality: Table I, single oral dose of 500 mg/kg, day 7 after application
Protocol: as §11, §12, §13, §14, §15, §16

With `CCOC(=O)CNC(=O)C(C)CC(=O)c1ccc(-c2ccc(F)cc2F)cc1` (stereo not drawn) [VUFB 18392] the FA inhibition % [1] was 51%, the mortality at 168 h [2] was 0% and the Pain inhibition % [3] was 41%. It also gave a CE inhibition % [4] of 40%.
In the case of `CC(CC(=O)c1ccc(-c2ccc(F)cc2F)cc1)C(=O)O` (stereo not drawn) [VUFB 17629, Cyclohexylammonium Salt of 4-/2,4-Difluorobiphenylyl/-2-methyl-4-oxobutan Acid], the FA inhibition % [1] is reported as 53%, the “% mortality” value (male mice) is reported as 0% and the Pain inhibition % [3] is reported as 58%. It also gave a CE inhibition % [4] of 47%.
`CCCCNC(=O)C(C)CC(=O)c1ccc(-c2ccc(F)cc2F)cc1` (stereo not drawn) [VUFB 18398, n-Butylamide of 4-/2,4-Difluorobiphenylyl/-2-methyl-4-oxobutan Acid] showed an FA inhibition % [1] of 44%, a mortality at 168 h [2] of 0% and a Pain inhibition % [3] of 33%. For the same compound, the CE inhibition % [4] was 33%.
In the case of `CC(CC(=O)c1ccc(-c2ccc(F)cc2F)cc1)C(=O)O` (stereo not drawn) [Flobufen, 4(2,4-difluorobiphenylyl)-2-methyl-4-oxobutanic acid, reference compound], the FA inhibition % [1] is reported as 65%, the FA suppression % ([1]; dose 20, suspension in 0.5% methylcellulose) is reported as 65% and the “% mortality” value (male mice) is reported as 50%. The “Acute toxicity, % mortality” value (male mice; Table II, oral, dose 500, aqueous solution (flobufen: suspension in 0.5% methylcellulose), 7 days) was 50%, the Pain inhibition % [3] was 79% and the Pain suppression % ([3]; oral, dose 100, suspension in 0.5% methylcellulose) was 79%. It also gave a CE inhibition % [4] of 46% and a CE suppression % ([4]; oral, dose 20, suspension in 0.5% methylcellulose) of 46%.
With `CC(CC(=O)c1ccc(-c2ccc(F)cc2F)cc1)C(=O)O` (stereo not drawn) [VUFB 18405, Potassium Salt of 4-/2,4-Difluorobiphenylyl/-2-methyl-4-oxobutan Acid] the FA inhibition % [1] was 50%, the “% mortality” value (male mice) was 20% and the Pain inhibition % [3] was 47%. The CE inhibition % [4] was 39%.
With `CC(CC(=O)c1ccc(-c2ccc(F)cc2F)cc1)C(=O)O` (stereo not drawn) [VUFB 18404] the FA inhibition % [1] was 51%, the “% mortality” value (male mice) was 30% and the Pain inhibition % [3] was 35%. The CE inhibition % [4] was 44%.
Work on `CC(CC(=O)c1ccc(-c2ccc(F)cc2F)cc1)C(=O)O` (stereo not drawn) [VUFB 17640] yielded an FA suppression % ([1]; dose 30, aqueous solution) of 58%, a mortality at 72 h ([2]; physiological saline, iv, 100 mg/kg, Table II, parenteral (intravenous), dose 100, physiological saline, 3 days) of 0% and a Pain suppression % ([3]; oral, dose 150, aqueous solution) of 77%. For the same compound, the Pain suppression % ([3]; parenteral (intramuscular), dose 80, aqueous solution) was 48%, the CE suppression % ([4]; oral, dose 30, aqueous solution) was 46% and the CE suppression % ([4]; parenteral (intramuscular), dose 1, aqueous solution) was 21%. The CE suppression % ([4]; parenteral (intramuscular), dose 10, aqueous solution) was 40%.
`CCOC(=O)C(C)CC(=O)c1ccc(-c2ccc(F)cc2F)cc1` (stereo not drawn) [VUFB 18391] gave an FA inhibition % [1] of 55%, a mortality at 168 h [2] of 0% and a Pain inhibition % [3] of 38%. The CE inhibition % [4] was 49%.
